# According to PubChem BioAssay (NCI):
# Several values for one entry are separate records, joined by “and”; a condition that tells them apart may be missing. Equal entries are not always repeated.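 Briefly, cells in 96-well plates were exposed to five compound concentrations for 48 h, and endpoints were estimated by linear interpolation. GI50: concentration for 50% inhibition of growth. TGI is the concentration that stops growth completely.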
# What was measured:
# Assay in all cases: NCI anticancer screen, dose series, 48 h
# [1] = tested on: U251 CNS
# [2] = tested on: DMS 273 small cell lung
# [3] = tested on: SF-268 CNS
# [4] = tested on: UACC-62 melanoma
# [5] = tested on: MALME-3M melanoma
# [6] = tested on: EKVX NSCLC
# [7] = tested on: OVCAR-4 ovarian
# [8] = tested on: DLD-1 colon
# [9] = tested on: LOX IMVI melanoma
# [10] = tested on: UACC-257 melanoma
# [11] = tested on: SNB-78 CNS
SMILES,TGI [1] [µM],TGI [2] [µM],TGI [3] [µM],TGI [4] [µM],TGI [5],TGI [6] [µM],TGI [7] [µM],TGI [8] [µM],TGI [9],TGI [10] [µM],TGI [11] [µM],GI50 [7] [µM],GI50 [8] [µM],GI50 [1] [µM],GI50 [10] [µM],GI50 [3] [µM],GI50 [4] [µM],GI50 [5] [µM],GI50 [6] [µM],GI50 [9] [µM]
CCOC(=O)C1(C(=O)OCC)CC=C(C)CC12C(=O)Nc1ccccc12 (stereo not drawn),> 100,> 100,> 100,> 100,> 100 µM,> 100,> 100,> 100,> 100 µM,–,–,–,–,–,–,–,–,–,–,–
Cn1cnc([N+](=O)[O-])c1Sc1nnc(C(F)(F)F)n1C,37.2,87.5,> 100,33.5,44 µM,> 100,62.6,33.5,30.5 µM,32.9,> 100,–,–,–,–,–,–,–,–,–
COC(=O)C(=O)C(C#N)c1ccc(Cl)c(Cl)c1 (stereo not drawn),> 100,> 100,> 100,> 100,> 100 µM,> 100,–,> 100,> 100 µM,> 100,> 100,–,–,–,–,–,–,–,–,–
O=C1CCC2CCOc3ccc(O)c1c32 (stereo not drawn),> 100,> 100,> 100,> 100,> 100 µM,> 100,> 100,> 100,–,> 100,> 100,–,–,–,–,–,–,–,–,–
CC(C)(C)C(=O)OCC(COC(=O)C(C)(C)C)[N+](=O)[O-],> 100,> 100,> 100,> 100,> 100 µM,> 100,> 100,> 100,> 100 µM,> 100,–,–,–,–,–,–,–,–,–,–
O=C1c2ccccc2C2(O)Oc3cccc(O)c3C12O (stereo not drawn),> 100,> 100,> 100,> 100,> 100 µM,> 100,> 100,> 100,> 100 µM,> 100,> 100,–,–,–,–,–,–,–,–,–
CCCCCCCCCC(=O)N[C@H]1CCc2cc(OC)c(OC)c(OC)c2-c2ccc(SC)c(=O)cc21,0.0618,0.295,–,15.3,–,9.55,> 100,57.7,–,13.9,38.9,10.8,11.2,–,–,–,–,–,–,–
O=C1CC(c2c[nH]c3ccccc23)C(=O)N1c1ccccc1 (stereo not drawn),> 100,> 100,–,> 100,> 100 µM,> 100,> 100,> 100,–,> 100,> 100,–,–,–,–,–,–,–,–,–
COC(=O)[C@]12CC[C@@H](C)[C@H](C)[C@@H]1C1=CC[C@@H]3[C@@]4(C)C=C(O)C(=O)C(C)=C4CC[C@@]3(C)[C@]1(C)CC2,33.6,–,35.1,31.3,42.8 µM,19.5,26.3,–,27.4 µM,42.2,–,11.9,–,16.9,20,15.2,14.5,22.4,4.96,13
COc1ccc(CCC2NCCc3cc(OC)c(OC)cc32)cc1 (stereo not drawn),> 100,–,> 100,–,> 100 µM,> 100,> 100,> 100,–,> 100,> 100,–,–,–,–,–,–,–,–,–
CCc1cccc(C(C)CC)c1NC(=O)CC1C(=O)Nc2ccccc2S1=O (stereo not drawn),48.5,> 100,> 100,> 100,> 100 µM,> 100,47.9,> 100,73.7 µM,> 100,92.9,–,–,–,–,–,–,–,–,–
O=C(CC(=O)c1ccccc1NC1=Cc2ccccc2C(=O)C1=O)C(=O)NC1=C(Cl)C(=O)c2ccccc2C1=O,12.5,6.8,11.8,3.97,2.49 µM,22.4,15.1,11.7,3.35 µM,4.49,8.79,–,–,–,–,–,–,–,–,–
C#CC#CC#CC#CC#CC#CC#CC#CCC1OC[C@H](COC(=O)O[C@@H](C(=O)O[C@H]2C[C@@]3(O)[C@@H](OC(=O)c4ccccc4)[C@@H]4[C@]5(OC(C)=O)CO[C@@H]5C[C@H](O)[C@@]4(C)C(=O)[C@H](OC(C)=O)C(=C2C)C3(C)C)[C@@H](NC(=O)c2ccccc2)c2ccccc2)O1 (stereo partly drawn),> 33.3,–,> 33.3,> 33.3,> 33.3 µM,> 33.3,> 33.3,–,> 33.3 µM,> 33.3,–,> 33.3,–,0.394,> 8.84,0.992,0.907,1.16,> 33.3,0.199
CC(C)(CCC(C)(C)c1ccccc1)c1ccccc1,30.4,–,33.3,41.4,30 µM,32.4,39.7,–,32 µM,29.2,–,–,–,–,–,–,–,–,–,–
CC(C)c1ccc(O)c(=O)cc1,> 80.9,> 46.3,> 62.1,21.8,> 72 µM and 66.6 µM,> 100,> 100,> 100,40.7 µM and 72.8 µM,31,> 91.1,4.56,–,6.53,15.9,7.43,–,19.9,–,3.54
Cc1ccc(N(C(=O)CC(=O)N2N=C(c3ccccc3)C(N=Nc3ccc([N+](=O)[O-])cc3)C2=O)C(=O)c2ccc(Cl)cc2)cc1 (stereo not drawn),23.7,20.3,35.4,> 100,> 100 µM,> 100,> 100,> 55.9,15.7 µM,> 72.7,> 100,–,–,–,–,–,–,–,–,–
CCOC(=O)c1cnc2c(cnn2CC)c1NN=C(C)C,> 100,–,> 100,> 100,> 100 µM,> 100,> 100,–,> 100 µM,> 100,–,94.6,–,35.6,30.4,38.9,45.3,> 100,20.6,35.3
O=C1C=C(Nc2nc(C(=O)O)cc(=O)[nH]2)c2ccccc2C1=O,> 100,–,> 100,> 100,> 100 µM,> 100,> 100,–,> 100 µM,> 100,–,–,–,–,–,–,–,–,–,–
COc1cccc2c1C(=O)c1c(O)c3c(c(O)c1C2=O)C[C@@](O)(/C(C)=N\O)C[C@@H]3OC1CC(N)C(O)C(C)O1 (stereo partly drawn),7.73,4.52,5.77,2.94,2.41 µM,19.5,17.3,18.2,6.06 µM,6.02,8.2,–,–,–,–,–,–,–,–,–
